In patent US10556883B2, “Benzenesulfonamide compounds, method for synthesizing same, and use thereof in medicine and cosmetics” (GALDERMA RESEARCH & DEVELOPMENT, priority 2016, dated 2020):

Test system: TNFα secretion from LPS stimulated frozen Peripheral Blood Mononuclear Cells (PBMC)
Assay: inhibition of TNFα secretion from LPS stimulated human PBMC (hPBMC assay)
Format: cell-based
Conditions: LPS 1 μg/mL, overnight incubation, TNFα by HTRF
Experimental: Activity of the compounds was investigated using human peripheral blood mononuclear cells (hPBMC). This assay was designed to measure the inhibition of the TNFα secretion from LPS stimulated frozen Peripheral Blood Mononuclear Cells (PBMC) isolated from human blood. TNFα levels were measured using HTRF® Human TNFα kit (Cisbio #62TNFPEC) which is a rapid and quantitative sandwich immunoassay based on TR-FRET technology.
Frozen PBMC were quickly thawed, resuspended in culture medium (RPMI 10% inactivated FBS) and viable cells were seeded in 96-well plates (50,000 cells/well). […] After overnight incubation at 37° C., 10 μL of cell supernatant were mixed with 5 μL of each tagged anti-TNFα specific antibody as recommended by the supplier. After 2 hours of incubation at room temperature, the HTRF® signals were measured using a microplate reader (wavelengths: excitation=337 nm, first emission=620 nm, second emission=665 nm).

Row | Compound | IC50 [nM]
1 | Cc1cc(COc2ccc(S(=O)(=O)NC3(C(=O)NO)CN(C(=O)OC(C)(C)C)C3)cc2)c2ccccc2n1 [Example 14, Tert-butyl 3-(hydroxycarbamoyl)-3-((4-((2-methylquinolin-4-yl)methoxy)phenyl)sulfonamido)azetidine-1-carboxylate] | < 50
2 | Cc1cc(COc2ccc(S(=O)(=O)NC3(C(=O)NO)CN(C(=O)CC(C)(C)C)C3)cc2)c2ccccc2n1 [Example 15, 1-(3,3-dimethylbutanoyl)-N-hydroxy-3-((4-((2-methylquinolin-4-yl)methoxy)phenyl)sulfonamido)azetidine-3-carboxamide] | 50 to 100
3 | Cc1cc(COc2ccc(S(=O)(=O)NC3(C(=O)NO)CN(C(=O)N4CCCCC4)C3)cc2)c2ccccc2n1 [Example 16a, N-hydroxy-3-((4-((2-methylquinolin-4-yl)methoxy)phenyl)sulfonamido)-1-(piperidine-1-carbonyl)azetidine-3-carboxamide] | 50 to 100
4 | Cc1cc(COc2ccc(S(=O)(=O)NC3(C(=O)NO)CN(C(=O)N4CCOCC4)C3)cc2)c2ccccc2n1 [Example 16b, N-hydroxy-3-((4-((2-methylquinolin-4-yl)methoxy)phenyl)sulfonamido)-1-(morpholine-4-carbonyl)azetidine-3-carboxamide] | < 50
5 | Cc1cc(COc2ccc(S(=O)(=O)NC3(C(=O)NO)CN(C(=O)N4CCN(C)CC4)C3)cc2)c2ccccc2n1 [Example 16c, N-hydroxy-1-(4-methylpiperazine-1-carbonyl)-3-((4-((2-methylquinolin-4-yl)methoxy)phenyl)sulfonamido)azetidine-3-carboxamide] | < 50
6 | C=CCOC(=O)N1CC(NS(=O)(=O)c2ccc(OCc3cc(C)nc4ccccc34)cc2)(C(=O)NO)C1 [Example 17, Allyl 3-(hydroxycarbamoyl)-3-((4-((2-methylquinolin-4-yl)methoxy)phenyl)sulfonamido)azetidine-1-carboxylate] | < 50
7 | Cc1cc(COc2ccc(S(=O)(=O)N(C)C3(C(=O)NO)CN(C(=O)C(C)C)C3)cc2)c2ccccc2n1 [Example 19a, N-hydroxy-1-isobutyryl-3-((N-methyl-4-((2-methylquinolin-4-yl)methoxy)phenyl)sulfonamido)azetidine-3-carboxamide] | < 50
8 | CCC(CC)C(=O)N1CC(C(=O)NO)(N(C)S(=O)(=O)c2ccc(OCc3cc(C)nc4ccccc34)cc2)C1 [Example 19b, 1-(2-ethylbutanoyl)-N-hydroxy-3-((N-methyl-4-((2-methylquinolin-4-yl)methoxy)phenyl)sulfonamido)azetidine-3-carboxamide] | 50 to 100
9 | Cc1cc(COc2ccc(S(=O)(=O)N(C)C3(C(=O)NO)CN(C(=O)C4CCOCC4)C3)cc2)c2ccccc2n1 [Example 19c, N-hydroxy-3-((N-methyl-4-((2-methylquinolin-4-yl)methoxy)phenyl)sulfonamido)-1-(tetrahydro-2H-pyran-4-carbonyl)azetidine-3-carboxamide] | < 50
10 | Cc1cc(COc2ccc(S(=O)(=O)N(C)C3(C(=O)NO)CN(C(=O)CC(C)C)C3)cc2)c2ccccc2n1 [Example 19d, N-hydroxy-3-((N-methyl-4-((2-methylquinolin-4-yl)methoxy)phenyl)sulfonamido)-1-(3-methylbutanoyl)azetidine-3-carboxamide] | < 50
11 | Cc1cc(COc2ccc(S(=O)(=O)N(C)C3(C(=O)NO)CN(C(=O)OC(C)(C)C)C3)cc2)c2ccccc2n1 [Example 20, Tert-butyl 3-(hydroxycarbamoyl)-3-((N-methyl-4-((2-methylquinolin-4-yl)methoxy)phenyl)sulfonamido)azetidine-1-carboxylate] | < 50
12 | CCN(C1(C(=O)NO)CN(C(=O)C(C)C)C1)S(=O)(=O)c1ccc(OCc2cc(C)nc3ccccc23)cc1 [Example 21a, 3-((N-ethyl-4-((2-methylquinolin-4-yl)methoxy)phenyl)sulfonamido)-N-hydroxy-1-isobutyrylazetidine-3-carboxamide] | < 50
13 | CCN(C1(C(=O)NO)CN(C(=O)C2CCOCC2)C1)S(=O)(=O)c1ccc(OCc2cc(C)nc3ccccc23)cc1 [Example 21b, 3-((N-ethyl-4-((2-methylquinolin-4-yl)methoxy)phenyl)sulfonamido)-N-hydroxy-1-(tetrahydro-2H-pyran-4-carbonyl)azetidine-3-carboxamide] | 50 to 100
14 | COCCN(C1(C(=O)NO)CN(C(=O)C(C)C)C1)S(=O)(=O)c1ccc(OCc2cc(C)nc3ccccc23)cc1 [Example 22, N-hydroxy-1-isobutyryl-3-((N-(2-methoxyethyl)-4-((2-methylquinolin-4-yl)methoxy)phenyl)sulfonamido)azetidine-3-carboxamide] | < 50
15 | Cc1cc(COc2ccc(S(=O)(=O)N(C(C)C)C3(C(=O)NO)CN(C(=O)C(C)C)C3)cc2)c2ccccc2n1 [Example 23, N-hydroxy-1-isobutyryl-3-((N-isopropyl-4-((2-methylquinolin-4-yl)methoxy)phenyl)sulfonamido)azetidine-3-carboxamide] | 500 to 1000
16 | CC(=O)N1CC(CC(=O)NO)(NS(=O)(=O)c2ccc(OCc3cc(C)nc4c(C)cccc34)cc2)C1 [Example 24, 2-(1-acetyl-3-((4-((2,8-dimethylquinolin-4-yl)methoxy)phenyl)sulfonamido)azetidin-3-yl)-N-hydroxyacetamide] | < 50
17 | Cc1cc(COc2ccc(S(=O)(=O)NC3(CC(=O)NO)CN(C(=O)N4CCOCC4)C3)cc2)c2ccccc2n1 [Example 25, N-hydroxy-2-(3-((4-((2-methylquinolin-4-yl)methoxy)phenyl)sulfonamido)-1-(morpholine-4-carbonyl)azetidin-3-yl)acetamide] | < 50
18 | CO[C@H]1C[C@H](C(=O)N2CC(NS(=O)(=O)c3ccc(OCc4cc(C)nc5ccccc45)cc3)(C(=O)NO)C2)C1 [Example 26a, N-hydroxy-1-((1r,3r)-3-methoxycyclobutane-1-carbonyl)-3-((4-((2-methylquinolin-4-yl)methoxy)phenyl)sulfonamido)azetidine-3-carboxamide] | < 50
19 | CO[C@H]1C[C@@H](C(=O)N2CC(NS(=O)(=O)c3ccc(OCc4cc(C)nc5ccccc45)cc3)(C(=O)NO)C2)C1 [Example 26b, N-hydroxy-1-((1s,3s)-3-methoxycyclobutane-1-carbonyl)-3-((4-((2-methylquinolin-4-yl)methoxy)phenyl)sulfonamido)azetidine-3-carboxamide] | < 50
20 | Cc1cc(COc2ccc(S(=O)(=O)NC3(C(=O)NO)CN(C(=O)CC4CC4)C3)cc2)c2ccccc2n1 [Example 26c, 1-(2-cyclopropylacetyl)-N-hydroxy-3-((4-((2-methylquinolin-4-yl)methoxy)phenyl)sulfonamido)azetidine-3-carboxamide] | < 50
21 | CC[C@H](C)C(=O)N1CC(NS(=O)(=O)c2ccc(OCc3cc(C)nc4ccccc34)cc2)(C(=O)NO)C1 [Example 26d, (S)-N-hydroxy-1-(2-methylbutanoyl)-3-((4-((2-methylquinolin-4-yl)methoxy)phenyl)sulfonamido)azetidine-3-carboxamide] | < 50
22 | Cc1cc(COc2ccc(S(=O)(=O)NC3(C(=O)NO)CN(C(=O)C4CC(F)(F)C4)C3)cc2)c2ccccc2n1 [Example 26e, 1-(3,3-difluorocyclobutane-1-carbonyl)-N-hydroxy-3-((4-((2-methylquinolin-4-yl)methoxy)phenyl)sulfonamido)azetidine-3-carboxamide] | < 50
23 | Cc1cc(COc2ccc(S(=O)(=O)NC3(C(=O)NO)CN(C(=O)C(C)C)C3)cc2)c2cccc(C)c2n1 [Example 27, 3-((4-((2,8-dimethylquinolin-4-yl)methoxy)phenyl)sulfonamido)-N-hydroxy-1-isobutyrylazetidine-3-carboxamide] | 100 to 500
24 | Cc1cc(COc2ccc(S(=O)(=O)NC3(CC(=O)NO)CN(C(=O)N4CCN(C(C)C)CC4)C3)cc2)c2ccccc2n1 [Example 28a, N-hydroxy-2-(1-(4-isopropylpiperazine-1-carbonyl)-3-((4-((2-methylquinolin-4-yl)methoxy)phenyl)sulfonamido)azetidin-3-yl)acetamide] | < 50
25 | Cc1cc(COc2ccc(S(=O)(=O)NC3(C(=O)NO)CN(C(=O)CC(C)C)C3)cc2)c2cccc(F)c2n1 [Example 29, 3-((4-((8-fluoro-2-methylquinolin-4-yl)methoxy)phenyl)sulfonamido)-N-hydroxy-1-(3-methylbutanoyl)azetidine-3-carboxamide] | 100 to 500
26 | Cc1cc(COc2ccc(S(=O)(=O)N(C)C3(C(=O)NO)CN(C(=O)C(C)C)C3)cc2)c2cccc(F)c2n1 [Example 30, 3-((4-((8-fluoro-2-methylquinolin-4-yl)methoxy)-N-methylphenyl)sulfonamido)-N-hydroxy-1-isobutyrylazetidine-3-carboxamide] | < 50
27 | Cc1cc(COc2ccc(S(=O)(=O)NC3(CC(=O)NO)CN(C(=O)N4CCN(C)CC4)C3)cc2)c2cccc(C)c2n1 [Example 31, 2-(3-((4-((2,8-dimethylquinolin-4-yl)methoxy)phenyl)sulfonamido)-1-(4-methylpiperazine-1-carbonyl)azetidin-3-yl)-N-hydroxyacetamide] | 50 to 100
